Consider 39 compounds from PubChem BioAssay AID504564 (Southern Research Specialized Biocontainment Screening …, 2011).

Each structure is given as a SMILES string. Activity calls are given as the source filed them. No rule for the calls is given here. Where a SMILES comes first, the peptide text is derived from it. Some results are limits rather than exact numbers.

Assay [1] has as its system M. tuberculosis H37Rv growth inhibition, no glycerol. Briefly: Confirmatory growth inhibition assay, M. tuberculosis H37Rv, no glycerol, purified compounds (AID 504564). As to conditions: for IC90: 90% growth inhibition concentration.
Test in assay [2]: as above
As to conditions: M. tuberculosis H37Rv growth inhibition, no glycerol; at 25 µM (top of the series).

As usually defined, the IC50 is the concentration that inhibits the measured activity by half. A word on the IC90: it is the concentration at which the effect reaches the 90% level. A higher IC90 goes with weaker potency. Regarding `O=C1C(Br)=Cc2cccc3cccc1c23`, in assay [1], the IC50 is 60 nM and the IC90 amounted to 170 nM. The matching figures for `Nc1c(C(=O)NC2CCCCC2)nsc1C(=O)OCC(=O)NC1CCCCC1`: 450 nM and 1230 nM. Consider `COC(=O)c1cc(=O)n(-c2ccc(F)cc2)c(=Nc2ccc(F)cc2)s1`, for which, in assay [1], the IC50 is 300 nM and the IC90 stood at 1100 nM. Regarding `CCOC(=O)CNC(=O)[C@H](Cc1ccccc1)NC(=O)OCc1ccccc1` (HELM PEPTIDE1{[O=C(OCc1ccccc1)[*:2]].F.G.[CCO[*:1]]}$$$$V2.0), in assay [1], the IC50 was 1080 nM and the IC90 is 2500 nM. Turning to `Cc1ccc2c(c1)c(C1=c3ccccc3=NC1=O)c(O)n2C`, in assay [1], the IC50 is 490 nM and the IC90 turned out to be 1500 nM. Turning to `COC(=O)C1CC(=O)N(c2ccc(OCc3ccccc3Cl)cc2)C1` (stereo not given), in assay [1], the IC50 was 340 nM and the concentration for an effect of 90% (IC90) came to 2630 nM. For the compound `CCc1ccc(/C=C2/C(=O)N(C)C(=S)N2CC(=O)OC)s1`, in assay [1], the IC50 was 460 nM and the IC90 stood at 1910 nM.

As for `CCOC(=O)COc1ccc(/C=C2\NC(=S)N(CC)C2=O)cc1`, in assay [1], the IC50 was 1680 nM and the IC90 was 4460 nM. The matching figures for `S=c1nc[nH]c2nc[nH]c12`: 1030 nM and 1520 nM. For `COC(=O)CCc1nc2c(C#N)c(-c3ccc(Cl)cc3)ccn2n1`, in that order: 840 nM and 3540 nM.

As for `CCOC(=O)COn1c2c(c3c4no[n+]([O-])c4ccc31)CCCC2`, in assay [1], the IC50 is 1580 nM and the IC90 is 3040 nM. On to `CC(C)NC(=O)c1sc(=S)n2c1[nH]c(=O)c1ccc(C(=O)NCCc3ccc(Cl)cc3)cc12`, for which, in assay [1], the IC50 was 210 nM and the IC90 was 430 nM.

Take `Cc1ccc2ccc3ccc(C)nc3c2n1`: in assay [1], the IC50 was 160 nM and the IC90 amounted to 450 nM. In the case of `COC(=O)c1ccc(CNc2c(N3CCCC3)c(=O)c2=O)cc1`, in assay [2], the growth inhibition is -5.07% (inactive). As for `CC[N+](C)(CC)CCCCOc1ccc2c(c1)C(=O)c1cc(OCCCC[N+](C)(CC)CC)ccc1-2`, in assay [1], the IC50 is 700 nM and the concentration for an effect of 90% (IC90) was found to be 1200 nM.

Regarding `O=C(CSc1nc2ccccc2c(=O)[nH]1)NC1CCCCC1`, in assay [1], the concentration for half-maximal inhibition (IC50) was less than 10 nM and the 90% effect concentration (IC90) is less than 10 nM.

For `Cc1nn2c(NCc3ccccn3)cc(C(C)C)nc2c1-c1ccccc1`, in assay [1], the IC50 is 640 nM and the IC90 was 1200 nM. The matching figures for `CC(=NCc1ccc2c(c1)OCO2)C1=C(O)c2ccccc2C1=O`: 70 nM and 600 nM.

On to `Cc1cccc(-c2oc3ccc(-c4ccc5c(c4)OCO5)cc3c2C#Cc2cncn2C)c1`, for which, in assay [1], the IC50 is 2220 nM and the IC90 is 2930 nM. `Cc1nc(SCC(=O)NC2CCCCC2)[nH]c(=O)c1C`: in assay [1], the concentration for half-maximal inhibition (IC50) is 250 nM and the IC90 amounted to 740 nM. The matching figures for `CCOC(=O)C(C)Sc1ncnc2c1nnn2-c1ccc(F)cc1` (stereo not given): 450 nM and 4760 nM. For the compound `c1ccc(/N=C2\N=C(Nc3ccccn3)c3ccccc32)nc1`, in assay [1], the IC50 is 20 nM and the IC90 came out at 30 nM. Consider `Cc1cccc(/C=C/C(=O)c2ccc([N+](=O)[O-])o2)c1`, for which, in assay [1], the IC50 is 20 nM and the IC90 turned out to be 20 nM. On to `CCC(C)Nc1ccc(NC(C)CC)cc1` (stereo not given), for which, in assay [1], the IC50 was 590 nM and the IC90 amounted to 990 nM. For the compound `Cc1ccc(NC(=O)C2C3/C=C\CCCCC32)cc1C` (stereo not given), in assay [1], the IC50 is 1870 nM and the IC90 was more than 25000 nM.

Turning to `Cc1cc(Br)ccc1NC(=O)c1cnc(N2CCN(c3ccccn3)CC2)c2ccccc12`, in assay [1], the IC50 is 850 nM and the IC90 was 2540 nM. With `COC(=O)C(Nc1nc(SCC(=O)NC2CCCCC2)nc2ccccc12)c1ccccc1` (stereo not given), in assay [2], the growth inhibition is 3.49% (inactive).

As to `CCOC(=O)c1ccc(NC(=O)Cn2ncc(Cl)c(Cl)c2=O)cc1`, in assay [1], the IC50 is 90 nM and the concentration for an effect of 90% (IC90) is 280 nM. For `O=C(NCC(c1cccs1)N1CCOCC1)c1cc([N+](=O)[O-])cc([N+](=O)[O-])c1` (stereo not given), in that order: 150 nM and 310 nM. In the case of `CNc1nc(SCc2ccccc2Cl)nc2c1CCCC2`, in assay [1], the half-maximal inhibitory concentration (IC50) is 430 nM and the IC90 stood at 1060 nM.

Turning to `Cc1ccc(C(=O)N/N=C(/CC(=O)c2cccs2)C(F)(F)F)cc1`, in assay [1], the IC50 was 560 nM and the concentration for an effect of 90% (IC90) worked out at 890 nM. For the compound `CCOC1OC(=O)C(Cl)=C1Nc1ccccc1C` (stereo not given), in assay [1], the IC50 is 2660 nM and the 90% effect concentration (IC90) was 4410 nM. For `O=C(CSc1nc2ccccc2c(=O)[nH]1)NCc1ccc(Cl)cc1`, in that order: 300 nM and 660 nM. The matching figures for `COC(=O)C(C)Oc1ccc(-c2nccc(-c3ccccn3)n2)cc1` (stereo not given): 1640 nM and 4320 nM. Take `O=C(/C=C/c1ccccc1)N1CCN(CCN2C(=O)c3cccc4cccc(c34)C2=O)CC1`: in assay [1], the IC50 is 1520 nM and the IC90 was 4020 nM.

With `O=C(/C=C\c1cccs1)N1CCN(Cc2ccc3c(c2)OCO3)CC1`, in assay [1], the IC50 was 140 nM and the IC90 came to 330 nM.

Regarding `Oc1ccccc1/C=N/Nc1ccnc(SCc2ccccc2)n1`, the growth inhibition in assay [2] was 0.48% (inactive). Take `CC1CCN(C(=O)C2CCN(c3nnc(-n4cccc4)s3)CC2)CC1`: in assay [1], the IC50 was 1150 nM and the IC90 stood at 2830 nM. For `COc1cc(NC(=O)C/C(C)=N/NC(=O)c2ccccn2)c(OC)cc1Cl`, in that order: 2060 nM and 6770 nM.
